According to the NIST ThermoML archive (doi:10.1016/j.fluid.2019.04.036):

Conditions: Liquid, Transpiration method

CCCCN(C=O)CCCC [N,N-dibutylformamide]
Conditions	vapor or sublimation pressure [kPa]
293.1 K	0.0026
295.8 K	0.00329
296.9 K	0.00365
298 K	0.004
298.7 K	0.00421
298.9 K	0.00438
299.3 K	0.00469
301.4 K	0.00534
304.5 K	0.00695
304.6 K	0.00705
304.8 K	0.00709
308.3 K	0.0097
308.7 K	0.01006
309.9 K	0.01103
310.7 K	0.01193
311.6 K	0.01265
312.5 K	0.01383
313.3 K	0.01469
314.7 K	0.01666
315.1 K	0.01677
315.3 K	0.01776
318.2 K	0.0217
318.4 K	0.02183
320.5 K	0.0256
321.1 K	0.02589
322.6 K	0.03097
322.8 K	0.03141
323.8 K	0.03251
325.8 K	0.03894
326.8 K	0.04037
329.4 K	0.04901
329.6 K	0.04927
334.7 K	0.0724

CCN(C=O)CC [N,N-diethylformamide]
Conditions	vapor or sublimation pressure [kPa]
288.8 K	0.0751
292.2 K	0.0961
295.1 K	0.1173
300.5 K	0.1677
300.7 K	0.169
303.7 K	0.211
305.7 K	0.2482
310.7 K	0.3265
315.7 K	0.4646
320.8 K	0.6274
323.2 K	0.7094
325.8 K	0.8534
330.9 K	1.093
335.9 K	1.479
338.5 K	1.733
340.9 K	1.948
346 K	2.46
348.5 K	2.893
350.9 K	3.209
356.1 K	4.164

CCCN(C=O)CCC [N,N-dipropylformamide]
Conditions	vapor or sublimation pressure [kPa]
278.5 K	0.00516
282.4 K	0.00741
283.4 K	0.00814
285.1 K	0.00949
288.2 K	0.01246
290.2 K	0.01527
292.2 K	0.01766
294.8 K	0.02239
295.8 K	0.02392
296.5 K	0.02608
298.4 K	0.03075
299.4 K	0.03131
301.2 K	0.03699
302.9 K	0.04152
305.1 K	0.05251
306.1 K	0.05391
307.2 K	0.05892
308.2 K	0.06219
310.4 K	0.07592
311.3 K	0.08121
313.4 K	0.09479
315.4 K	0.113
316.4 K	0.1145
318.5 K	0.1321
319.4 K	0.1476

CCCCNC=O [N-butylformamide]
Conditions	vapor or sublimation pressure [kPa]
297.1 K	0.00293
298.2 K	0.00321
299.3 K	0.00349
301.2 K	0.00422
304.2 K	0.0056
307.2 K	0.00731
310.2 K	0.00912
314.1 K	0.01307
316.2 K	0.01498
317.8 K	0.01763
318.2 K	0.01802
320.2 K	0.02208
323.1 K	0.02695
326.2 K	0.03461
329.1 K	0.04093
331.2 K	0.05017
334.2 K	0.06336
337.1 K	0.07893
340.2 K	0.09365
343.2 K	0.1151
346.2 K	0.1403
349.1 K	0.1719
352.2 K	0.208

CN(C)C=O [dimethylformamide]
Conditions	vapor or sublimation pressure [kPa]
276.3 K	0.1229
279.3 K	0.1498
281.2 K	0.1752
283.1 K	0.1994
285.3 K	0.2375
289.3 K	0.314
291.3 K	0.3569
293.3 K	0.4045
296.3 K	0.4849
299.5 K	0.5941
302.2 K	0.6949
305.2 K	0.847
